Several values for one entry are separate records, joined by “and”; a condition that tells them apart may be missing. Identical values can stand only once.
Assays:
[1] = test system: Human patients exhibiting symptoms of BPH; assay: International Prostate Symptom Score questionnaire; assay type: in vivo; settings: individual patient
Method: Measurements of each patient's prostate size were obtained prior to ethanol ablation by MRI. Flowmetry measurements were also taken. Each patient was then administered ethanol ablation therapy by transurethral injection directly into prostate tissue, as summarized in Table 1. Total amount of ethanol injected ranged from about 22% to about 38% relative to the volume of the patient's prostate. The number of injection sites ranged from 3 to 11; the average number of injection sites was 5.8. Following ethanol ablation therapy, each patient was administered bicalutamide, 150 mg orally each day for sixty days, beginning on the day of treatment. Survey data was also acquired pre-treatment and at the three-month and six-month followups. Patients were evaluated for subjective symptom severity using an International Prostate Symptom Score questionnaire.

[2] = test system: Human patients exhibiting symptoms of BPH; assay: Prostate size by MRI after transurethral ethanol ablation with coadministered bicalutamide; assay type: in vivo; settings: individual patient
Method: (§1) Measurements of each patient's prostate size were obtained prior to ethanol ablation by MRI. Flowmetry measurements were also taken.
(§2) Each patient was then administered ethanol ablation therapy by transurethral injection directly into prostate tissue, as summarized in Table 1. Total amount of ethanol injected ranged from about 22% to about 38% relative to the volume of the patient's prostate. The number of injection sites ranged from 3 to 11; the average number of injection sites was 5.8. Following ethanol ablation therapy, each patient was administered bicalutamide, 150 mg orally each day for sixty days, beginning on the day of treatment.
(§3) A three-month and six-month follow-up examination was done for each patient to evaluate prostate size and flowmetry results.

[3] = test system: Human patients exhibiting symptoms of BPH; assay: Flowmetry after transurethral ethanol ablation with coadministered bicalutamide; assay type: in vivo; settings: individual patient
Method: as §1, §2, §3

[4] = dosages up to 200 mg per day, long-term clinical trials; cited from earlier work
prostate weight = settings: compared with antiandrogens presently used; cited from earlier work

| Structure (SMILES) | IPSS at 3 months ([1]; 3 months after ethanol ablation plus bicalutamide 150 mg orally daily for sixty days) | IPSS at 6 months ([1]; 6 months after ethanol ablation plus bicalutamide 150 mg orally daily for sixty days) | Post-treatment Evaluation (3 months) Size ([2]; 3 months after transurethral ethanol ablation plus bicalutamide 150 mg orally each day for sixty days) | Post-treatment Evaluation (6 months) Size ([2]; 6 months after transurethral ethanol ablation plus bicalutamide 150 mg orally each day for sixty days) | Post-treatment Evaluation (3 months) Qmax ([3]; maximum flow rate, 3 months after ethanol ablation plus bicalutamide 150 mg orally daily for sixty days) | Post-treatment Evaluation (6 months) Qmax ([3]; maximum flow rate, 6 months after ethanol ablation plus bicalutamide 150 mg orally daily for sixty days) | Post-treatment Evaluation (3 months) Qmed ([3]; median flow rate, 3 months after ethanol ablation plus bicalutamide 150 mg orally daily for sixty days) | Post-treatment Evaluation (6 months) Qmed ([3]; median flow rate, 6 months after ethanol ablation plus bicalutamide 150 mg orally daily for sixty days) | tolerability [4] | potency in reducing prostate weight (prostate weight) |
| --- | --- | --- | --- | --- | --- | --- | --- | --- | --- | --- |
| CC(O)(CS(=O)(=O)c1ccc(F)cc1)C(=O)Nc1ccc(C#N)c(C(F)(F)F)c1 (racemic) [bicalutamide, (+−) N-[4-cyano-3-(trifluoromethyl)phenyl]-3-[(4-fluorophenyl)sulfonyl]-2-hydroxy-2-methyl propanimide] | 10 (2×) and 4 (2×) and 8 (2×) and 24 and 9 and 21 and 14 and 15 and 13 and 3 and 20 and 18 | 9 (2×) and 6 and 8 (4×) and 14 and 12 (2×) and 7 and 10 and 3 and 20 and 4 | 40 g (2×) and 36 g and 28 g and 30 g (2×) and 25 g and 78 g (2×) and 63 g and 45 g and 42 g and 54 g and 98 g and 15 g | 28 g (2×) and 30 g and 20 g (3×) and 21 g (2×) and 19 g (2×) and 32 g and 18 g (2×) and 27 g and 23 g | 18 mL/sec (2×) and 7 mL/sec and 4 mL/sec and 12 mL/sec (2×) and 11 mL/sec (2×) and 17 mL/sec (2×) and 13 mL/sec (2×) and 15 mL/sec and 10 mL/sec and 21 mL/sec | 18 mL/sec and 13 mL/sec (2×) and 19 mL/sec and 15 mL/sec (4×) and 14 mL/sec and 30 mL/sec and 17 mL/sec (2×) and 12 mL/sec and 20 mL/sec and 21 mL/sec | 11 mL/sec and 3 mL/sec (2×) and 4 mL/sec and 7 mL/sec (4×) and 5 mL/sec (3×) and 8 mL/sec and 2 mL/sec (2×) and 9 mL/sec | 11 mL/sec (3×) and 10 mL/sec (4×) and 9 mL/sec (5×) and 13 mL/sec and 8 mL/sec and 5 mL/sec | well-tolerated | – |
| CC1(C)C(=O)N(c2ccc(C#N)c(C(F)(F)F)c2)C(=O)N1CC#N [RU 58642] | – | – | – | – | – | – | – | – | – | more potent |

— patent US20060122281A1, “Regimen for treating prostate tissue and surgical kit for use in the regimen” (AMS Research Corporation, priority 2001, published 2006)
